Source: patent US8993527B2, “Methods, compositions, and formulations for preventing or reducing adverse effects in a patient” (Pericor Therapeutics, Inc., priority 2005, dated 2015)

Key:
Format in all cases: in vivo, human
[1] = Phase 2 CABG trial: safety (serum glucose, uric acid, adverse events)
Description: In addition to the hemodynamic monitoring described above the following tests were performed at screening, on the first post-operative day and at discharge:
1. Hematology included hemoglobin, total white cell count and differential, hematocrit and platelet count.
4. Any adverse events were recorded throughout by the investigator, who assessed their severity and the relationship of these adverse experiences to the treatment.
11. Adverse Effects. The incidence, severity and drug-relatedness of any adverse effects were tabulated by treatment group by decreasing incidence of such effects in the high dose group. Statistical analysis was not performed.

[2] = test system: patients undergoing CABG surgery; test: Phase 2 CABG trial: difficulty in weaning from bypass; details: for WEANING TIME: Pts without Difficulty
Description: During surgery, anesthesia was maintained by continuous infusion of fentanyl and midazolam. Routine clinical parameters were recorded using standard operating room monitoring equipment. Continuous 2-lead Holter ECG and TEE data were recorded. Standard surgical procedures (e.g., aorta cross-clamping, crystalloid cardioplegia, cardiopulmonary bypass, hypothermia) were used. Anastomoses were constructed, aorta cross-clamp removed and patients were discontinued from bypass when body temperature was 37° C. The quality of anastomosis was judged by the surgeon. Difficulty in weaning from bypass was judged by need for one or more of the following: pacemaker, return to bypass, balloon pump or vasopressor administration. Hemodynamic measurements, including heart rate, arterial blood pressure, pulmonary capillary wedge pressure and cardiac output, were recorded before stemotomy, 15 and 30 min after bypass and upon chest closure. Radial artery and pulmonary artery pressures, myocardial and whole body temperature, O2 saturation, end-tidal CO2 and arterial blood gases were measured, and ECG recordings were obtained as clinically indicated. Hemodynamic variables (blood pressure, heart rate, pulmonary capillary wedge pressure) were controlled within 20% of baseline using prescribed regimens.
The incidence of adverse clinical outcomes, such as cardiac death (death of patient attributable to primarily cardiac causes, non-fatal transmural MI (as measured by the appearance of a new Q-wave on 12-lead ECG plus a CK-MB value of ≧50 units), non-transmural MI (CK-MB value of ≧50 units), congestive heart failure (low cardiac output requiring intra-aortic balloon pump or left ventricular assist device) or life-threatening dysrhythmia (ventricular fibrillation, or ventricular tachycardia requiring cardioversion or drug treatment) was compared between the placebo and treatment groups. For the diagnosis of myocardial infarction, ECG tracings and CK-MB values were assessed centrally by observers blinded to treatment. The difficulty of weaning the patient from bypass, if any, was compared between placebo and treatment groups by noting need for one or more of the following: pacemaker, return to bypass, balloon pump or use of vasopressors.
8. Difficulty in Weaning. Patients were considered to have difficulty in weaning if they needed one or more of the following interventions: pacemaker, return to bypass, balloon pump or use of vasopressors. The number of patients receiving each of the above interventions was analyzed using a X^2 and Fisher's exact test, as was the number of patients classified as having difficulty in weaning. In addition, the time to weaning (defined as time from cross-clamp removal to end of bypass) in the patients experiencing difficulty were compared by a 1-way analysis of variance.
As noted, patients were determined as being difficult to remove from cardiopulmonary bypass if they required one or more of the following interventions: insertion of a pacemaker, return to bypass, use of a balloon pump or administration of vasopressors, or another intervention which the investigation determines is indicative of difficulty in weaning. […] When a combination of the high and low dose groups were compared to placebo (Table 9b), the reduced need for vasopressor support approached statistical significance (p=0.08). […] There were no differences in any of the weaning difficulty parameters discussed above between the high and low dose groups (Table 9c).

[3] = test system: patients undergoing CABG surgery; test: Phase 2 CABG trial: myocardial ischemia by Holter ECG and TEE; details: for Isch min/h monitored: postbypass, listed as AICA riboside
Description: The evaluation of Holter tapes and echo videotapes was performed centrally by two independent blinded observers; if there was disagreement between the two, a third observer was used to “break the tie.” The same observers were used throughout the study. 5. Ischemic Events-TEE. Ischemic event data were evaluated during two time periods-pre-bypass and post-bypass, using the following analysis: a) The number of patients with ischemic events was compared across the groups using Fisher's exact test. This analysis also included pre-post changes and pre- and post-combined. b) For patients with events, analysis of the mean duration and severity of ischemia was done. […] For severity (an ordinary variable, 0-4 scale) and number of events, the nonparametric test was used. […] 6. Ischemic Events-ECG. The analysis of ischemic events indicated by ECG was done using the same methods as the echo events. The time periods analyzed were: (a) baseline (Holter start to infusion start), (b) pre-bypass (infusion start to bypass start), (c) post-bypass ([…] off to infusion end), and (d) post-treatment (infusion end to Holter end). For patients with events, the following variables were analyzed: mean duration, maximum ST change and area under the curve of significant ST segment deviation. Analysis of variance (ANOVA) was used. 3. Myocardial Ischemia. Myocardial ischemia was measured with continuous Holter ECG and TEE. […] ECG episodes of ischemia were defined as reversible S-T depression 1 mm or greater lasting 1 minute or longer. TEE data were recorded continuously during surgery at the level of the mid-papillary muscles of the left ventricle. The wall motion of each of the four segments was graded from 0-4 (normal to […] ischemia was defined by regional wall motion worsening at least 2 grades and lasting 1 minute or longer.

NC(=O)c1ncn([C@@H]2O[C@H](CO)[C@@H](O)[C@H]2O)c1N [1 (1-110), 5-amino-1-β-D-ribofuranosyl-imidazole-4-carboxamide]
SERUM GLUCOSE, MEAN BASELINE ([1]; 0.05 mg/kg/min (n = 41)): 108.5 ± 4.8 mg/dL | SERUM URIC ACID, MEAN BASELINE ([1]; 0.05 mg/kg/min (n = 41)): 5.9 ± 0.2 mg/dL | SERUM GLUCOSE-MEAN CHANGES FROM BASELINE ([1]; 0.05 mg/kg/min, 24 HR POST): 44.2 ± 7.4 mg/dL | SERUM URIC ACID-MEAN CHANGES FROM BASELINE ([1]; 0.05 mg/kg/min, 24 HR POST): -0.5 ± 0.2 mg/dL | SERUM GLUCOSE-MEAN CHANGES FROM BASELINE ([1]; 0.05 mg/kg/min, DISCHARGE): 18.7 ± 6.3 mg/dL | SERUM URIC ACID-MEAN CHANGES FROM BASELINE ([1]; 0.05 mg/kg/min, DISCHARGE): 0.3 ± 0.2 mg/dL | SERUM GLUCOSE-MEAN CHANGES FROM BASELINE ([1]; 0.05 mg/kg/min, ICU + 0): 65.6 + 7.6 mg/dl | SERUM URIC ACID-MEAN CHANGES FROM BASELINE ([1]; 0.05 mg/kg/min, ICU + 0): -0.3 ± 0.1 mg/dL | SERUM GLUCOSE-MEAN CHANGES FROM BASELINE ([1]; 0.05 mg/kg/min, ICU + 4 HR): 53.6 + 11.9 mg/dl | SERUM URIC ACID-MEAN CHANGES FROM BASELINE ([1]; 0.05 mg/kg/min, ICU + 4 HR): -0.1 ± 0.1 mg/dL | SERUM GLUCOSE-MEAN CHANGES FROM BASELINE ([1]; 0.05 mg/kg/min, ICU + 8 HR): 58.8 + 12.1 mg/dl | SERUM URIC ACID-MEAN CHANGES FROM BASELINE ([1]; 0.05 mg/kg/min, ICU + 8 HR): -0.0 ± 0.1 mg/dL | SERUM GLUCOSE-MEAN CHANGES FROM BASELINE ([1]; 0.05 mg/kg/min, POST CPB): 116.5 ± 10.7 mg/dL | SERUM URIC ACID-MEAN CHANGES FROM BASELINE ([1]; 0.05 mg/kg/min, POST CPB): -0.6 ± 0.1 mg/dL | SERUM GLUCOSE-MEAN CHANGES FROM BASELINE ([1]; 0.05 mg/kg/min, PRE CPB): 18.6 ± 7.0 mg/dL | SERUM URIC ACID-MEAN CHANGES FROM BASELINE ([1]; 0.05 mg/kg/min, PRE CPB): -0.1 ± 0.1 mg/dL | SERUM GLUCOSE, MEAN BASELINE ([1]; 0.10 mg/kg/min (n = 35)): 120.6 ± 7.3 mg/dL | SERUM URIC ACID, MEAN BASELINE ([1]; 0.10 mg/kg/min (n = 35)): 5.7 ± 0.2 mg/dL | SERUM URIC ACID-MEAN CHANGES FROM BASELINE ([1]; 0.10 mg/kg/min, 24 HR POST): 0.3 ± 0.3 mg/dL | SERUM GLUCOSE-MEAN CHANGES FROM BASELINE ([1]; 0.10 mg/kg/min, DISCHARGE): 19.2 ± 7.0 mg/dL | SERUM URIC ACID-MEAN CHANGES FROM BASELINE ([1]; 0.10 mg/kg/min, DISCHARGE): -0.1 ± 0.2 mg/dL | SERUM GLUCOSE-MEAN CHANGES FROM BASELINE ([1]; 0.10 mg/kg/min, ICU + 0): 59.8 + 13.6 mg/dl | SERUM URIC ACID-MEAN CHANGES FROM BASELINE ([1]; 0.10 mg/kg/min, ICU + 0): 1.5 ± 0.2 mg/dL | SERUM GLUCOSE-MEAN CHANGES FROM BASELINE ([1]; 0.10 mg/kg/min, ICU + 4 HR): 55.5 + 9.6 mg/dl | SERUM URIC ACID-MEAN CHANGES FROM BASELINE ([1]; 0.10 mg/kg/min, ICU + 4 HR): 1.6 ± 0.2 mg/dL | SERUM GLUCOSE-MEAN CHANGES FROM BASELINE ([1]; 0.10 mg/kg/min, ICU + 8 HR): 44.4 + 7.5 mg/dl | SERUM URIC ACID-MEAN CHANGES FROM BASELINE ([1]; 0.10 mg/kg/min, ICU + 8 HR): 1.4 ± 0.2 mg/dL | SERUM GLUCOSE-MEAN CHANGES FROM BASELINE ([1]; 0.10 mg/kg/min, POST CPB): 120.6 ± 15.9 mg/dL | SERUM URIC ACID-MEAN CHANGES FROM BASELINE ([1]; 0.10 mg/kg/min, POST CPB): 0.4 ± 0.1 mg/dL | SERUM GLUCOSE-MEAN CHANGES FROM BASELINE ([1]; 0.10 mg/kg/min, PRE CPB): 4.8 ± 3.4 mg/dL | SERUM URIC ACID-MEAN CHANGES FROM BASELINE ([1]; 0.10 mg/kg/min, PRE CPB): 0.4 ± 0.1 mg/dL | uric acid effects in the initial high dose patients ([1]; 0.19 or 0.38 mg/kg/min, five drug-treated patients): significant hyperuricemia and elevated urinary uric acid levels with crystalluria | drug-treated patients with adverse events ([1]; low dose group (0.05 mg/kg/min)): 28/41 | WEANING TIME ([2]; 0.05 mg/kg/min): 20.4 +/− 2.5 | WEANING TIME ([2]; 0.1 mg/kg/min): 16.3 +/− 1.9 | PATIENTS WITH ANY DIFFICULTY WEANING ([2]; 0.05 + 0.10, 76 patients): 15 (19.7%) | PATIENTS WITH ANY DIFFICULTY WEANING ([2]; 0.05, 41 patients): 7 (17%) | PATIENTS WITH ANY DIFFICULTY WEANING ([2]; 0.10, 35 patients): 8 (23%) | Isch min/h monitored ([3]; High Dose): 27±20 min/h | Isch min/h monitored ([3]; Low Dose): 40±15 min/h | incidence of ECG ischemia, postbypass period ([3]; high dose): 11% | incidence of ECG ischemia, prebypass period ([3]; high dose): 3% | incidence of TEE ischemia, postbypass period ([3]; high dose): 24% | incidence of TEE ischemia, prebypass period ([3]; high dose): 6% | incidence of ECG ischemia, postbypass period ([3]; low dose): 22% | incidence of ECG ischemia, prebypass period ([3]; low dose): 3% | incidence of TEE ischemia, postbypass period ([3]; low dose): 27% | incidence of TEE ischemia, prebypass period ([3]; low dose): 15%
